{"source": "paper PMC4245125", "about": "“Pharmacological and Behavioral Characterization of D-473, an Orally Active Triple Reuptake Inhibitor Targeting Dopamine, Serotonin and Norepinephrine Transporters” (PLoS ONE, 2014)", "key": {"D2": {"target": "T1, D2 (Homo sapiens, UniProt P14416)", "T1 construct": "purchased NIMH PDSP", "T1 sequence (P14416 whole entry)": "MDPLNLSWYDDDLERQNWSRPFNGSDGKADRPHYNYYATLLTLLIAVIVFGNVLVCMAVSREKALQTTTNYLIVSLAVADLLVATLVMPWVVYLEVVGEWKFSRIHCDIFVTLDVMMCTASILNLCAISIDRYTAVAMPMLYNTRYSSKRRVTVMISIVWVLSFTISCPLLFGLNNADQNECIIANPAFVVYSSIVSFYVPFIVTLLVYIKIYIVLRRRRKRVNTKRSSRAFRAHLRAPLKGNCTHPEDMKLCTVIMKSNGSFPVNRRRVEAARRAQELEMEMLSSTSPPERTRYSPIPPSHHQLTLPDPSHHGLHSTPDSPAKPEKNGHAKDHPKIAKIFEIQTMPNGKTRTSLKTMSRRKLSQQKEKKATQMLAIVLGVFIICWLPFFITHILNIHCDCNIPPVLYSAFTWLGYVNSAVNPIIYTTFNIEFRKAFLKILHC", "assay": "NIMH PDSP receptor binding, D2", "conditions": "[3H]N-methylspiperone, read-out: % Inhibition of Binding at 10 µM D-473"}, "5HT6": {"target": "T2, 5HT6 (Homo sapiens, UniProt P50406)", "T2 construct": "purchased NIMH PDSP", "T2 sequence (P50406 whole entry)": "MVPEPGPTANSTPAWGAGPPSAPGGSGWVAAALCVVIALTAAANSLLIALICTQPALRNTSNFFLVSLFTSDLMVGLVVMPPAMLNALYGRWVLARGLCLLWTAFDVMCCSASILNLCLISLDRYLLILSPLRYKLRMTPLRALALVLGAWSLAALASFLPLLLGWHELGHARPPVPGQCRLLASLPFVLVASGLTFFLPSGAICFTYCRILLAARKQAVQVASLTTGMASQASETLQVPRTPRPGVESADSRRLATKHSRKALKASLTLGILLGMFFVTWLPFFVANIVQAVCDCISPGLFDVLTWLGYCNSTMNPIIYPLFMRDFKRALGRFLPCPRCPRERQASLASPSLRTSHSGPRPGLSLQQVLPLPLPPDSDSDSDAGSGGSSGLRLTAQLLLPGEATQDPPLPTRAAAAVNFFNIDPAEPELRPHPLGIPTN", "assay": "NIMH PDSP receptor binding, 5HT6", "conditions": "[3H]LSD, read-out: % Inhibition of Binding at 10 µM D-473"}, "H3": {"target": "T3, H3 (Homo sapiens, UniProt Q9Y5N1)", "T3 construct": "purchased NIMH PDSP", "T3 sequence (Q9Y5N1 whole entry)": "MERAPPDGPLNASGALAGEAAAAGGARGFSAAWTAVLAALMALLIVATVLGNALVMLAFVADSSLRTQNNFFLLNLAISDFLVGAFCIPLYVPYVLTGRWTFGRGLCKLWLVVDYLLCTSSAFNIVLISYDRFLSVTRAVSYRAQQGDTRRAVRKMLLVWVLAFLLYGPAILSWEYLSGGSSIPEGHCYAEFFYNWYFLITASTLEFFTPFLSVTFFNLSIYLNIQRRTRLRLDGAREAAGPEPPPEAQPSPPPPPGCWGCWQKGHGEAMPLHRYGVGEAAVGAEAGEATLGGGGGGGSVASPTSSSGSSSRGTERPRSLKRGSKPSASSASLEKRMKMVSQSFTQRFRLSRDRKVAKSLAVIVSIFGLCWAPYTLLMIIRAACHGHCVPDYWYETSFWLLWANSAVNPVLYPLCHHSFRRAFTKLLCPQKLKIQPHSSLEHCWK", "assay": "NIMH PDSP receptor binding, H3", "conditions": "[3H]Alpha-methyl Histamine, read-out: % Inhibition of Binding at 10 µM D-473"}, "M3": {"target": "T4, M3 (Homo sapiens, UniProt P20309)", "T4 construct": "purchased NIMH PDSP", "T4 sequence (P20309 whole entry)": "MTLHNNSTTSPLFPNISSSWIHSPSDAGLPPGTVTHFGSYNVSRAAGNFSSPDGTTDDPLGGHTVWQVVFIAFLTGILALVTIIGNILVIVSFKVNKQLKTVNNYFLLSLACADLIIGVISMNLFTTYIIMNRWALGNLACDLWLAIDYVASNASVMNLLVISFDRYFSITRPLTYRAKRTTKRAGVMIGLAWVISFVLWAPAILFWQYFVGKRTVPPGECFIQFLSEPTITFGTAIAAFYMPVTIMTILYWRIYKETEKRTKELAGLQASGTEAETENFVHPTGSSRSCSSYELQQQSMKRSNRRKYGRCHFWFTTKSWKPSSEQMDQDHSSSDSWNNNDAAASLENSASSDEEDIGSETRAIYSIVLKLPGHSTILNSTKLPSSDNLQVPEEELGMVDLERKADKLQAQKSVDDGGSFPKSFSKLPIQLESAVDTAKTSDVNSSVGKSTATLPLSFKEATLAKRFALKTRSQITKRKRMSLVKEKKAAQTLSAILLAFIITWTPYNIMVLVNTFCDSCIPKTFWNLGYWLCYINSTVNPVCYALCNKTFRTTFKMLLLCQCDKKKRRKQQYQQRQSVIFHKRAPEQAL", "assay": "biochemical", "conditions": "read-out: % Inhibition of Binding at 10 µM D-473"}, "duration of immobility": {"test_system": "duration of immobility", "assay": "Forced swim test in rats after oral administration", "format": "in vivo", "conditions": "rat, sub-chronic", "method": "The experiment was carried out in the same way as described in our previous publications according to the Porsolt protocol, [30]. The subjects were male Sprague Dawley rats (Harlam Sprague Dawley Inc., Indianapolis, Ind., USA) weighing 200–225 g housed in cages for at least 1 week prior to testing. Animals were maintained in a temperature-controlled environment under a 12 hr light-dark cycle. All subjects were naive and were used only once. Rats were transported to the testing room at least for one hour prior to testing for acclimatization and adaptation purposes. Experimental sessions were conducted between 9 AM to 2 PM daily. Animals were assigned randomly and were placed individually in a glass cylinder (24.5 cm×35.5 cm) filled with water at room temperature to a depth of 22 cm. All the test sessions were recorded by video cameras. The water was changed in the beginning of each session and the temperature was maintained constant at 24–25°C. Rats were judged to be immobile if they made only minimal movement, barely keeping afloat. The test procedure consisted of a pretest and test session separated by 24 h. During the pretest period, rats were placed in the swim chamber for 15 min. Followed by the initial swim exposure; rats were patted dry and were transferred to the individual cages. Drugs or vehicle were then orally administered (p.o) 15 min after the initial swim exposure and were then transported to their home cages. On the following day the rats were brought back to the testing room at least 1 h before the beginning of test session. Rats were administered either drugs or vehicle 1 h before the swim test. Each rat underwent a 5-min swim session, which was videotaped and scored later. In the case of imipramine, pretreatment time was 30 min. Drug solutions were prepared freshly on the test days. Compound D-473 was dissolved in 3% beta-hydroxy propyl cyclodextrin solution. All drug and vehicle preparations were administered orally. D-473 was administered at a dose of 5, 10, 25 and 50 mg/kg and the volume was maintained at 1.2 mL/rat. Drug or vehicle was administered 1 h prior to testing for forced swimming. An individual, blinded to the treatment, scored the videotapes for immobility. Immobility scores were analyzed by one way ANOVA test. Behavioral results were analyzed with Prism 6.0 (GraphPad Software, San Diego, CA). The immobility time for forced swimming test was analyzed by one-way ANOVA (analysis of variance) followed by post Dunnett’s multiple comparison test vs. vehicle. Data for vehicle was used as negative control, respectively. Statistical significance was assumed in analysis if p≤0.05."}, "[1]": {"assay": "Brain uptake after oral administration in rats", "format": "in vivo", "conditions": "rat, 25 mg/kg PO", "method": "Sample preparation: Following oral administration of 25 mg/kg of D-473 and D-142 in male Sprague Dawley rats, the blood samples were collected at different time points over a period of 8 h for analysis. Concentrations of D-473 and D-142 in plasma were quantitated using a set of calibration standards prepared in blank matrix that were processed in parallel. Plasma concentration evaluation was carried out by the CRO, Absorption System, PA. Additionally, brain uptake studies of D-473 were carried out at three different time points (2, 4 and 6 h) following oral administration of 25 mg/kg D-473. Concentrations of D-473 in rat brain were quantitated using a set of calibration standards which were prepared in blank brain homogenate matrix on the day of analysis. The standard samples (5, 10, 25, 100, 500, 1000, and 2000 ng/mL) for calibration curve were prepared by spiking 45 µL of blank rat plasma with 5 µL of appropriate working dilution of D-473 in acetonitrile. The bioanalytical sample preparation for brain and plasma analysis followed by quantification of test compounds entailed the addition of 250 µL acetonitrile to every 50 µL of standard and analyte samples to precipitate tissue plasma proteins and tissue macromolecules. These mixtures were then vortexed for 15 min at 1400 rpm. The suspensions were then clarified by centrifugation (18000 g, 10 min at 4°C), and each 150 µL of the resulting supernatant was mixed well with 50 µL 0.1% formic acid in 50/50 (v/v) ACN/water solution for about 10 sec. The mixtures were again centrifuged (18000 g, 10 min at 4°C) before 100 µL of clear supernatant were transferred to auto sampler vials for LC-MS/MS analysis.\nThe analysis of brain samples was performed using Waters (Milford, MA, USA) Acquity UPLC instrument with a triple quadrupole (TQD) MS analyzer. The LC-MS/MS detection was performed using a positive Multiple Reaction Monitoring (MRM) method by monitoring the ion transition of D-473 from m/z 440.39 → 121.03. The MS/MS conditions include capillary voltage, 2.92 kV, cone voltage, 26.0 V; source temperature, 150°C; desolvation temperature, 350°C; desolvation gas flow, 500 L/hr; and collision energy, 33 eV. The MS control and data acquisition were collected using the Waters MassLynx software v4.1. Chromatographic conditions were achieved using a reverse phase C-18 ethylene bridged hybrid column (BEH C18) (2.1×100 mm, 1.7 µM). 5 µL of sample solutions were injected and samples were eluted using 0.1% formic acid in water (solvent A) and 0.1% formic acid in ACN (solvent B) mixture with a flow rate of 0.2 mL/min. Gradient elution of the mobile phase was 90% A to 5% A from 0 to 1 min, 5% A, 95% B from 1 to 3 min, and 5% A to 90% A from 3 to 5 min."}}, "note": "“Also recorded” adds a separate entry of the source.", "data": [{"smiles": "COc1ccc(CN[C@@H]2CO[C@H](C(c3ccc(F)cc3)c3ccc(F)cc3)C[C@H]2O)cc1", "note": "[Compound D-473, (2S,4R,5R)-2-(bis(4-fluorophenyl)methyl)-5-((4-methoxybenzyl)amino)tetrahydro-2H-pyran-4-ol]", "values": [{"measurement": "inhibition at 10 µM", "setting": "D2", "value": 42.9, "unit": "%"}, {"measurement": "inhibition at 10 µM", "setting": "5HT6", "value": -11.4, "unit": "%"}, {"measurement": "inhibition at 10 µM", "setting": "H3", "value": -14.7, "unit": "%"}, {"measurement": "inhibition at 10 µM", "setting": "M3", "value": 6.9, "unit": "%"}, {"measurement": "Duration of immobility in the forced swimming test", "setting": "duration of immobility; 5 mg/kg p.o., vs vehicle", "value": "did not produce significant reduction in immobility"}, {"measurement": "Duration of immobility in the forced swimming test", "setting": "duration of immobility; 10 mg/kg p.o., vs vehicle (P<0.01), 10 mg/kg", "value": "robust, statistically significant effect; also recorded: statistically significant different compared to vehicle"}, {"measurement": "Duration of immobility in the forced swimming test", "setting": "duration of immobility; 25 mg/kg p.o., vs vehicle (P<0.01)", "value": "statistically significant different compared to vehicle"}, {"measurement": "Duration of immobility in the forced swimming test", "setting": "duration of immobility; 50 mg/kg p.o., vs vehicle (P<0.01)", "value": "statistically significant different compared to vehicle"}, {"measurement": "Kp at 2 h", "setting": "[1]; male, Sprague-Dawley, brain and plasma, 2 h, read-out: Brain/plasma ratio", "value": 0.76}, {"measurement": "Kp at 4 h", "setting": "[1]; male, Sprague-Dawley, brain and plasma, 4 h, read-out: Brain/plasma ratio", "value": 1.54}, {"measurement": "Kp at 6 h", "setting": "[1]; male, Sprague-Dawley, brain and plasma, 6 h, read-out: Brain/plasma ratio", "value": 1.22}, {"measurement": "concentration at 2 h", "setting": "[1]; male, Sprague-Dawley, brain, 2 h", "value": 264, "unit": "ng/mL"}, {"measurement": "concentration at 4 h", "setting": "[1]; male, Sprague-Dawley, brain, 4 h, read-out: Concentration in the brain (peak)", "value": 345, "unit": "ng/mL"}, {"measurement": "Concentration in the brain", "setting": "[1]; 6 h", "value": "slightly lower than observed at 2 h"}]}]}
